The values that follow come from PubChem BioAssay (NCI).

Among the test systems are TK-10 renal; SNB-19 CNS; CCRF-CEM leukemia; HCT-15 colon; K-562 leukemia; UACC-62 melanoma; NCI/ADR-RES ovarian; HCC-2998 colon; RPMI-8226 leukemia; COLO 205 colon.
Common to all, as to test: growth of human tumour cells (NCI), 48 h

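Briefly, cells in 96-well plates were exposed to five compound concentrations for 48 h, and endpoints were estimated by linear interpolation. GI50 is the concentration that inhibits growth by half. TGI: concentration producing complete growth inhibition.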

Regarding `Clc1cc(Cl)c(OCC#CI)cc1Cl`, the GI50 with TK-10 renal was 3.45 µM; in the test on SNB-19 CNS it was 18.3 µM; in the test with CCRF-CEM leukemia, 2.88 µM; in the test with HCT-15 colon, 5.02 µM; in the test with K-562 leukemia it was 3.49 µM; in the test with UACC-62 melanoma, 5.05 µM. The GI50 with NCI/ADR-RES ovarian is 2.79 µM; with HCC-2998 colon, 19.6 µM; with RPMI-8226 leukemia, 2.27 µM; in the test with COLO 205 colon, 1.57 µM. Further, the TGI was 13.2 µM with TK-10 renal; 43.9 µM with SNB-19 CNS; over 100 µM with CCRF-CEM leukemia; 23.5 µM with HCT-15 colon; 18.9 µM in the test with K-562 leukemia; 19.4 µM in the test with UACC-62 melanoma. Besides, the TGI stood at 9.66 µM with NCI/ADR-RES ovarian, 33.8 µM with HCC-2998 colon, 8.38 µM with RPMI-8226 leukemia and 3.06 µM in the test on COLO 205 colon.

In the case of `COc1ccc(-c2n[nH]nc2-c2cc(OC)c3c(c2OC)OCO3)cc1`, the GI50 is 4.85 µM in the test with TK-10 renal; 3.82 µM with SNB-19 CNS; 0.565 µM in the test with CCRF-CEM leukemia; 0.546 µM in the test with HCT-15 colon; 0.277 µM in the test on K-562 leukemia; 0.553 µM with UACC-62 melanoma. The GI50 in the test on NCI/ADR-RES ovarian was 0.368 µM; with HCC-2998 colon, 1.7 µM; in the test with RPMI-8226 leukemia it was 0.751 µM; with COLO 205 colon, 1.19 µM. In addition, the TGI was 79.8 µM in the test with TK-10 renal; over 100 µM in the test with SNB-19 CNS; over 100 µM in the test on CCRF-CEM leukemia; over 100 µM in the test on HCT-15 colon; over 82.4 µM in the test on K-562 leukemia; 14 µM in the test with UACC-62 melanoma. Moreover, the TGI is 19.3 µM in the test with HCC-2998 colon, 37.7 µM with RPMI-8226 leukemia and 5.57 µM with COLO 205 colon.

As for `Cc1cc(N/N=C/c2nc(-c3ccc(Br)cc3)oc2C)c2cc(Cl)ccc2n1`, the GI50 in the test on TK-10 renal, in the test with SNB-19 CNS, in the test on CCRF-CEM leukemia, in the test on HCT-15 colon, with K-562 leukemia and in the test with UACC-62 melanoma was over 100 µM each time. For the same molecule, the GI50 with NCI/ADR-RES ovarian, in the test with HCC-2998 colon, with RPMI-8226 leukemia and with COLO 205 colon was over 100 µM in each case. The TGI in the test with TK-10 renal, in the test with SNB-19 CNS, in the test with CCRF-CEM leukemia, in the test with HCT-15 colon, in the test on K-562 leukemia and with UACC-62 melanoma was over 100 µM each time. Further, the TGI with NCI/ADR-RES ovarian, in the test with HCC-2998 colon, in the test on RPMI-8226 leukemia and with COLO 205 colon was over 100 µM each time.

In the case of `CCCCCCCCCCCCCCCCCC(=O)OCC(COC1OC(COP(=O)(O)O)C(O)C(O)C1O)OC(=O)CCCCCCCCCCCCCCCCC` (configuration not stated), the TGI in the test with TK-10 renal is 17.6 µM; in the test with SNB-19 CNS, 14.8 µM; in the test on CCRF-CEM leukemia, 14.4 µM; in the test on HCT-15 colon, 14.4 µM; with K-562 leukemia, 18.7 µM; in the test on UACC-62 melanoma, 16.3 µM. Besides, the TGI with NCI/ADR-RES ovarian came out at 18.2 µM; in the test with HCC-2998 colon, 15.7 µM; in the test on RPMI-8226 leukemia it was 23.1 µM; in the test with COLO 205 colon, 18.5 µM.

Take `C/C(=N\Nc1ccc2ccccc2n1)c1ccccn1`: the GI50 in the test on TK-10 renal is 0.197 µM; in the test with SNB-19 CNS, 0.198 µM; with UACC-62 melanoma, 0.104 µM; in the test with NCI/ADR-RES ovarian, 0.0653 µM; in the test with HCC-2998 colon, 0.133 µM; in the test with RPMI-8226 leukemia, 0.0897 µM. The GI50 in the test with COLO 205 colon is under 0.0195 µM. For the same molecule, the TGI was found to be 16.1 µM with TK-10 renal; 14.3 µM in the test with SNB-19 CNS; 0.0284 µM in the test with CCRF-CEM leukemia; 5.72 µM with HCT-15 colon; 1.68 µM in the test on K-562 leukemia; 0.652 µM in the test on UACC-62 melanoma. The TGI in the test on NCI/ADR-RES ovarian is 7.19 µM; in the test on HCC-2998 colon, 2.51 µM; with RPMI-8226 leukemia, 2.89 µM; in the test on COLO 205 colon, 2.7 µM.

Take `O=C(c1ccccc1)C(CN1CCOCC1)c1ccccc1` (configuration not stated): the GI50 was 1.19 µM in the test on TK-10 renal; 3.76 µM in the test on SNB-19 CNS; 0.283 µM in the test on CCRF-CEM leukemia; 0.641 µM in the test with HCT-15 colon; 0.355 µM in the test with K-562 leukemia; 1.71 µM in the test with UACC-62 melanoma. Moreover, the GI50 in the test on NCI/ADR-RES ovarian was 2.83 µM; in the test on HCC-2998 colon, 4.36 µM; in the test on RPMI-8226 leukemia it was 0.793 µM; with COLO 205 colon, 1.76 µM. Also, the TGI in the test on TK-10 renal is 2.44 µM; with SNB-19 CNS, 15.6 µM; in the test with CCRF-CEM leukemia it was 1.19 µM; in the test on HCT-15 colon it was 2.21 µM; in the test with K-562 leukemia, 3.38 µM; in the test on UACC-62 melanoma it was 4.21 µM. Besides, the TGI amounted to 14.1 µM in the test with NCI/ADR-RES ovarian, 15.6 µM with HCC-2998 colon, 4.74 µM in the test with RPMI-8226 leukemia and 3.32 µM in the test on COLO 205 colon.

For `O=C(/C(=C/c1ccc([N+](=O)[O-])cc1)c1ccccc1)c1ccccc1`, the GI50 in the test on TK-10 renal is 3.43 µM; in the test on SNB-19 CNS, 3.9 µM; with CCRF-CEM leukemia, 2.25 µM; in the test on HCT-15 colon it was 2.85 µM; in the test with K-562 leukemia, 3.08 µM; with NCI/ADR-RES ovarian, 3.23 µM. Besides, the GI50 in the test on HCC-2998 colon was 2.38 µM; in the test with RPMI-8226 leukemia it was 2.36 µM; in the test on COLO 205 colon, 3.81 µM. For the same molecule, the TGI with TK-10 renal, in the test on SNB-19 CNS, in the test with CCRF-CEM leukemia, in the test with HCT-15 colon, in the test with K-562 leukemia and with NCI/ADR-RES ovarian was over 100 µM each time. For the same molecule, the values for the TGI in the test on HCC-2998 colon, with RPMI-8226 leukemia and in the test with COLO 205 colon were 5.24 µM, 6.49 µM and 18.2 µM, respectively.

For `CCN1CCC(CCOC)(CN2c3ccccc3Sc3ccc(Cl)cc32)C1` (configuration not stated), the GI50 is 2.03 µM with TK-10 renal; 2.65 µM in the test on SNB-19 CNS; 3.57 µM with CCRF-CEM leukemia; 2.04 µM in the test on HCT-15 colon; 2.05 µM in the test with UACC-62 melanoma; 1.73 µM with NCI/ADR-RES ovarian. For the same molecule, the GI50 with HCC-2998 colon is 1.63 µM; with RPMI-8226 leukemia it was 2.52 µM; in the test on COLO 205 colon, 1.71 µM. In addition, the TGI with TK-10 renal is 3.67 µM; in the test with SNB-19 CNS it was 7.31 µM; in the test with CCRF-CEM leukemia, over 100 µM; with HCT-15 colon, 4.26 µM; with UACC-62 melanoma, 3.81 µM; with NCI/ADR-RES ovarian, 3.89 µM. In addition, the TGI amounted to 3.2 µM with HCC-2998 colon, 5.7 µM in the test with RPMI-8226 leukemia and 3.29 µM with COLO 205 colon.
